Results on three compounds are retold here after article PMC5056380, “Characterization of WY 14,643 and its Complex with Aldose Reductase” (Scientific Reports, 2016).

Like-named read-outs stand apart in the source and are kept apart here.

Assay [1] addresses T1, human Aldose reductase (hAR) (Homo sapiens, UniProt P15121).
T1 construct: hexa-His (cleaved yes); made in house; host or cells: E. coli BL21
Also on record: method as in PMID 17194029. The following applies: cited from earlier work.

In another assay the test system is rat livers. More on the design: method as in PMID 195342. The following applies: cited from earlier work.
For the next assay, the target named is T2, hAR•NADP^+ (Homo sapiens, UniProt P15121).
T2 construct: hexa-His (cleaved yes); made in house; host or cells: E. coli BL21
The assay can be described thus: Fluorescence titration of inhibitor binding to the hAR•NADP^+ binary complex. To be noted: 60 μM NADP^+, 10 mM Tris-HCl pH 9.0. Here is the method: (§1) The fluorescence intensities of hAR decreased gradually when the concentrations of quenchers (i.e. inhibitor and cofactors) were increased. The observed fluorescence data were used for calculating the fluorescence quenching (Q% = (F^0 − F)/F^0) where F is the measured fluorescence and F^0 is the fluorescence in the absence of quenchers.
(§2) Fluorescence titration was performed for the binding of NADPH to hAR at a protein concentration of 0.5 μM in 5 mM sodium phosphate buffer (pH 7.0) containing 100 μM DTT. The titration for NADP^+ binding to hAR was conducted at a protein concentration of 0.5 μM in 10 mM Tris-HCl buffer (pH 9.0) containing 100 μM DTT in 1.4 ml quartz cuvette by measuring fluorescence by SpectraMax M2 (Molecular Device, CA). The concentration of protein•NADP^+/NADPH complexes formed were measured by extensive quenching of protein fluorescence by varying the concentrations of NADP^+/NADPH at excitation and emission wavelengths of 295 and 365 nm, respectively following the procedure described by[43][44]. […] The binding of inhibitor (WY 14,643) to enzyme•NADP^+ complex was measured at 0.5 μM protein concentration in 10 mM Tris-HCl buffer (pH 9.0) containing 100 μM DTT by keeping saturated fixed 60 μM concentration of NADP^+ and varying the WY 14,643. […]

For the next assay, the target named is T3, hAR•NADPH (Homo sapiens, UniProt P15121).
T3 construct: hexa-His (cleaved yes); made in house; host or cells: E. coli BL21
The assay can be described thus: Fluorescence titration of inhibitor binding to the hAR•NADPH binary complex. To be noted: 60 μM NADPH, 5 mM sodium phosphate pH 7.0. Here is the method:
as §1, §2

In assay [2] the target is T1, human Aldose reductase (hAR). The assay can be described thus: Fluorescence titration (quenching) of cofactor binding to hAR. To be noted: for Kd: 0.5 μM protein. Here is the method:
as §1
Fluorescence titration was performed for the binding of NADPH to hAR at a protein concentration of 0.5 μM in 5 mM sodium phosphate buffer (pH 7.0) containing 100 μM DTT. The titration for NADP^+ binding to hAR was conducted at a protein concentration of 0.5 μM in 10 mM Tris-HCl buffer (pH 9.0) containing 100 μM DTT in 1.4 ml quartz cuvette by measuring fluorescence by SpectraMax M2 (Molecular Device, CA). The concentration of protein•NADP^+/NADPH complexes formed were measured by extensive quenching of protein fluorescence by varying the concentrations of NADP^+/NADPH at excitation and emission wavelengths of 295 and 365 nm, respectively following the procedure described by[43][44]. This method was extended for inhibitor (WY 14,643) binding to enzyme•NADPH complex at protein concentration of 0.5 μM in 5 mM sodium phosphate buffer (pH 7.0) containing 100 μM DTT by keeping saturated fixed 60 μM concentration of NADPH and by varying the concentrations of WY 14,643. The binding of inhibitor (WY 14,643) to enzyme•NADP^+ complex was measured at 0.5 μM protein concentration in 10 mM Tris-HCl buffer (pH 9.0) containing 100 μM DTT by keeping saturated fixed 60 μM concentration of NADP^+ and varying the WY 14,643. The concentrations of enzyme•NADP^+/NADPH•inhibitor complex formed were measured by quenching of fluorescence protein•NADP^+/NADPH complexes with excitation and emission wavelengths 295 and 365 nm, respectively.
The methodology described by van de Weert 2010 was followed in the binding constant determination. The fractional saturation (α) of protein by cofactors (NADP^+/NADPH) and by inhibitor (WY 14,643) binding to protein can be expressed in the form of fluorescence as follows;
The binding dissociation constants and stoichiometry for the binding of quenchers (cofactors and inhibitor) to protein were calculated by non-linear fitting to the experimental fluorescence data and results are shown in Table 1.

For the compound `Cc1cccc(Nc2cc(Cl)nc(SCC(=O)O)n2)c1C` [WY 14,643, [4-Chloro-6-(2,3-xylidino)-2-pyrimidinylthio]acetic Acid], in assay [1] (forward reaction (reduction of DL-glyceraldehyde)), the “Kii (intercept inhibition constant)” value was 1.8 µM. In assay [1] (forward reaction (reduction of DL-glyceraldehyde), read-out: Kis (the slope inhibition constant)), the Ki is 1.8 µM. The mode of inhibition result in assay [1] (oxidation of benzyl alcohol) was “pure non-competitive”. Further, the pattern of inhibition result in assay [1] (with respect to the reduction of DL-glyceraldehyde) is reported as “classical non-competitive”. In addition, the “increased capacity in oxidization of palmitoyl-coenzyme A” value in the assay on rat livers is listed as 18 fold. The Kd (in general, a measure of binding affinity in units of concentration) on hAR•NADP^+ (0.5 μM protein) amounted to 0.104 µM; on hAR•NADPH (0.5 μM protein) it was 0.11 µM. Besides, the “stoichiometry coefficient (n), binding with hAR•NADP^+ complex” value at hAR•NADP^+ is 1.37 ± 0.05. The “stoichiometry coefficient (n), binding with hAR•NADPH complex” value on hAR•NADPH was 1.25 ± 0.06.

Take `NC(=O)c1ccc[n+]([C@@H]2O[C@H](COP(=O)([O-])OP(=O)(O)OC[C@H]3O[C@@H](n4cnc5c(N)ncnc54)[C@H](OP(=O)(O)O)[C@@H]3O)[C@@H](O)[C@H]2O)c1` [NADP^+]: the dissociation constant (Kd) in assay [2] (NADP^+ binding to apo hAR, 10 mM Tris-HCl pH 9.0, 100 μM DTT, read-out: Kd(E-NADP^+), equilibrium dissociation constant) worked out at 0.21 ± 0.01 µM. Besides, in assay [2] (NADP^+ binding to apo hAR, 10 mM Tris-HCl pH 9.0), the “stoichiometry coefficient (n), E-NADP^+” value amounted to 1.05 ± 0.03. Besides, the “fold higher affinity of NADP^+ than NADPH for hAR” value in assay [2] (fluorescence quenching data, oxidized vs reduced cofactor) is on record as 2 fold.

In the case of `NC(=O)C1=CN([C@@H]2O[C@H](COP(=O)(O)OP(=O)(O)OC[C@H]3O[C@@H](n4cnc5c(N)ncnc54)[C@H](OP(=O)(O)O)[C@@H]3O)[C@@H](O)[C@H]2O)C=CC1` [NADPH], the Kd in assay [2] (NADPH binding to apo hAR, 5 mM sodium phosphate pH 7.0, 100 μM DTT, read-out: Kd(E-NADPH), equilibrium dissociation constant) turned out to be 0.48 ± 0.04 µM. In addition, the “stoichiometry coefficient (n), E-NADPH” value in assay [2] (NADPH binding to apo hAR, 5 mM sodium phosphate pH 7.0) turned out to be 1.25 ± 0.1.
